Publication doi:10.1101/2023.02.01.526632v1 (biorxiv, 2023)
pIC50: −log10 of the molar value.

Target: T1, BAP1 (Homo sapiens, UniProt Q92560)
T1 sequence (Q92560 1-729): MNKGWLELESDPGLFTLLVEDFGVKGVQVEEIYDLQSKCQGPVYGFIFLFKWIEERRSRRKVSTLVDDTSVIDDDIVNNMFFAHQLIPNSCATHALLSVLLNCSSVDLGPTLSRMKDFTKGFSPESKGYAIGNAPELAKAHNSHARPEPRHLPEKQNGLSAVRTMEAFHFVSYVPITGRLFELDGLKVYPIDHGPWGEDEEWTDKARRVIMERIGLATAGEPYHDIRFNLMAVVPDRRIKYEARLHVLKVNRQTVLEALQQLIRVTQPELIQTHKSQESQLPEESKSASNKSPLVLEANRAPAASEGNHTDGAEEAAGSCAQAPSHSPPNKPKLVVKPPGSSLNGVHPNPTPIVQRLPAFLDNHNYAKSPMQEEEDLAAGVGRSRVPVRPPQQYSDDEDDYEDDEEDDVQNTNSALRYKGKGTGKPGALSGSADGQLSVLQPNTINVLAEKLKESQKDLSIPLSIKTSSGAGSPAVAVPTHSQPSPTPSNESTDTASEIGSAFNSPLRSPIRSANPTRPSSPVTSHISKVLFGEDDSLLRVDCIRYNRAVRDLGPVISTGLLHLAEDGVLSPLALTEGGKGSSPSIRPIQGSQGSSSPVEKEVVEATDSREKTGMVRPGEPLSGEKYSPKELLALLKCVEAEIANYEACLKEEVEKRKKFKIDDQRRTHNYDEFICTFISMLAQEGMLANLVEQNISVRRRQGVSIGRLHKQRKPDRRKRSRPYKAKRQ
Assay: competition of Biotin-Ahx-Ub-VS labelling, DIA LC-MS/MS
Type: biochemical
Details: covalent; lysate, 3 h preincubation, 0.5 μM ubiquitin probe

`O=C(CCl)N1CCCC1c1ccc2c(c1)OCCO2` (stereo not shown) [compound 3, fragment 3] was tested, and the pIC50 was about 5.00.
